Source: PMC5778891 (Nature, 2017)
Numbering of substitutions follows the chain as printed.

How the values were obtained:
[1] = biological target: T1, K2P2.1(TREK-1) (Mus musculus, UniProt P97438); experiment: Two electrode voltage clamp in Xenopus oocytes, K2P2.1; type: cell-based
T1 sequence (P97438 1-411 isoform P97438-2): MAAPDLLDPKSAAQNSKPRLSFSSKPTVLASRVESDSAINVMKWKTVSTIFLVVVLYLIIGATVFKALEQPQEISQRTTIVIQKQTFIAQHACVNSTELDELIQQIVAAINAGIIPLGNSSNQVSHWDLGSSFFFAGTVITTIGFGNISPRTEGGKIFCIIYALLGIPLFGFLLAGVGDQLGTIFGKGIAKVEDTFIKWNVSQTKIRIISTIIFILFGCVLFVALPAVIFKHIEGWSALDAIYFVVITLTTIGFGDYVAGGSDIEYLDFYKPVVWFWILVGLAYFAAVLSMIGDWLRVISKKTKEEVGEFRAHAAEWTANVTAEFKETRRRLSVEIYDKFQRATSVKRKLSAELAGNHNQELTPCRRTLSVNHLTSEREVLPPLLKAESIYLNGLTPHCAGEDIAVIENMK

[2] = biological target: T2, K2P4.1(TRAAK) Q258K (Homo sapiens, UniProt Q9NYG8, Q232K); experiment: Two electrode voltage clamp in Xenopus oocytes, K2P4.1; type: cell-based; details: for effect of activator (current potentiation at 0 mV) compared with wild type: Xenopus oocytes, K2P4.1(TRAAK) Q258K, 10 μM BL-1249, 30 μM ML67-33
T2 sequence (Q9NYG8 1-419 isoform Q9NYG8-2 Q258K): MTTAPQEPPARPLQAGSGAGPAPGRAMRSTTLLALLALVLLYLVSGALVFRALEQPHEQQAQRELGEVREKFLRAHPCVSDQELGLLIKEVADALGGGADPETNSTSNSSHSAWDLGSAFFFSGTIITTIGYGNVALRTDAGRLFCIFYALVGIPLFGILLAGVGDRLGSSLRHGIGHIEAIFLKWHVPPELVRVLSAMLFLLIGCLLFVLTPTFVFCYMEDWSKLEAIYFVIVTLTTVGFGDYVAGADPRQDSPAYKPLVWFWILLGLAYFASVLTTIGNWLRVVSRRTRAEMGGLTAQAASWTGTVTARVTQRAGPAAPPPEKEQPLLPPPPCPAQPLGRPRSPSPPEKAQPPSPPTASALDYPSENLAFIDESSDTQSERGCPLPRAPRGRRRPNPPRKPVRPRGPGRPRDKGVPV

[3] = biological target: T3, K2P2.1(TREK-1) K271Q (Mus musculus, UniProt P97438, K286Q); experiment: Two electrode voltage clamp in Xenopus oocytes, K2P2.1; type: cell-based; details: for effect of activator (current potentiation at 0 mV) compared with wild type: 10 μM BL-1249, 30 μM ML67-33
T3 sequence (P97438 1-411 isoform P97438-2 K271Q): T1 sequence (P97438 1-411 isoform P97438-2) with K271Q

[4] = biological target: T3, K2P2.1(TREK-1) K271Q; experiment: HEK cell patch clamp response to arachidonic acid, K2P2.1; type: cell-based; details: HEK cells, 10 μM AA
[5] = biological target: T4, K2P10.1(TREK-2) (Homo sapiens, UniProt P57789); experiment: Two electrode voltage clamp in Xenopus oocytes, K2P10.1; type: cell-based
T4 sequence (P57789 1-543 isoform P57789-3): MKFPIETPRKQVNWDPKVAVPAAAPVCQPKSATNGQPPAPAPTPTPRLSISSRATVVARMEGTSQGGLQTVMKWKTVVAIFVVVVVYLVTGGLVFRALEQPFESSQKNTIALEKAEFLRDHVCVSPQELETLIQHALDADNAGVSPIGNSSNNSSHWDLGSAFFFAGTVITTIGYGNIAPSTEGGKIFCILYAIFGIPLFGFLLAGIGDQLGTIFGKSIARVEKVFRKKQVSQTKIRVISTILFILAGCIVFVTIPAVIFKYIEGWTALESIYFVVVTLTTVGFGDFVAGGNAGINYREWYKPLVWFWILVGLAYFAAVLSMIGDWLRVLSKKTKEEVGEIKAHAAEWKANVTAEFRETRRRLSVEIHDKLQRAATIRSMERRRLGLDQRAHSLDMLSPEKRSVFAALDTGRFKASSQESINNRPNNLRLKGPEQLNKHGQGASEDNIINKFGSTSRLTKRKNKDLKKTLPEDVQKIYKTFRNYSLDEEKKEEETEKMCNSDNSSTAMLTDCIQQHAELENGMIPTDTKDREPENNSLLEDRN

[6] = biological target: T1, K2P2.1(TREK-1); experiment: HEK293 inside-out patches, 150 mM K+[out]/150 mM Rb+[in], rectification; type: cell-based; details: 5 μM compound
[7] = biological target: K2P2.1(TREK-1)cryst (Mus musculus, UniProt P97438, A104R/A107P/E321A/I103L/K99R/N110S/N134A/Q100E/Q105A/S111D/S315A/T101K/T112Q); experiment: cell-based
[8] = biological target: T5, K2P4.1(TRAAK) (Homo sapiens, UniProt Q9NYG8); experiment: Two electrode voltage clamp in Xenopus oocytes, K2P4.1; type: cell-based
T5 sequence (Q9NYG8 1-419 isoform Q9NYG8-2): T2 sequence (Q9NYG8 1-419 isoform Q9NYG8-2 Q258K) with K258Q

[9] = Solubility in aqueous solutions; type: physicochemical
[10] = biological target: T1, K2P2.1(TREK-1); experiment: cell-based

K2P2.1(TREK-1)cryst, sequence (P97438 36-337 K99R/Q100E/T101K/I103L/A104R/Q105A/A107P/N110S/S111D/T112Q/N134A/S315A/E321A): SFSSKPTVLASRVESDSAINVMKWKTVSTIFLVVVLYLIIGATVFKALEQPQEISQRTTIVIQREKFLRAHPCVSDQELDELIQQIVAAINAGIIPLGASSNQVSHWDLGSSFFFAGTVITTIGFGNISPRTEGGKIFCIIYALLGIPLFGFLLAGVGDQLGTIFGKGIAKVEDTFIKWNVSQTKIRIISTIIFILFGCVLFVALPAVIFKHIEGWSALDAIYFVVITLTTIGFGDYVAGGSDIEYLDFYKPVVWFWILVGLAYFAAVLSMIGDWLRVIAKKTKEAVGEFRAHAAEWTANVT

SMILES | effect of activator (current potentiation at 0 mV) compared with wild type [2] | effect of activator (current potentiation at 0 mV) compared with wild type [3] | EC50 [2] [µM] | EC50 [5] [µM] | rectification coefficient (I+100mV/I-100mV) [6] | EC50 [7] [µM] | activation of channel [8] | solubility in aqueous solutions [9] | EC50 [1] [µM] | EC50 [10] [µM] | sensitivity to activator [3] | further results
C=CS(=O)(=O)N[C@H]1CC[C@H](C(=O)NCc2ccc(Cl)cc2Cl)CC1 [ML335a, trans-N-[(2,4-dichlorophenyl)methyl]-4-ethenesulfonamidocyclohexane-1-carboxamide] | – | – | – | – | – | – | – | – | – | – | – | effect on channel ([1]; Xenopus oocytes, dose response, K2P2.1(TREK-1)): no effect
c1ccc(-c2nnn[nH]2)c(Nc2cccc3c2CCCC3)c1 [BL-1249, (5,6,7,8-tetrahydro-naphthalen-1-yl)-[2-(1H-tetrazol-5-yl)-phenyl]-amine, reference compound] | unchanged | unchanged | – | – | – | – | – | – | – | – | – | –
CC1(C)c2cc(Cl)ccc2N(CCc2nn[nH]n2)c2ccc(Cl)cc21 [ML67-33, reference compound] | unchanged | unchanged | – | – | – | – | – | – | – | – | – | –
CCCCC/C=C\C/C=C\C/C=C\C/C=C\CCCC(=O)O [arachidonic acid] | – | – | – | – | – | – | – | – | – | – | – | effect of activator (current potentiation at 0 mV) compared with wild type [4]: unchanged
Cc1cc(Cl)ccc1OCCNC(=O)c1cccs1 [ML402, N-[2-(4-chloro-2-methylphenoxy)ethyl]thiophene-2-carboxamide] | – | – | 13.6 ± 1.5 | 5.9 ± 1.6 | ~ 1 | 14.9 ± 1.6 | not | insoluble | 13.7 ± 7 | 5.9 ± 1.6 | insensitive | –
CS(=O)(=O)Nc1ccc(C(=O)NCc2ccc(Cl)cc2Cl)cc1 [ML335, N-[(2,4-dichlorophenyl)methyl]-4-methanesulfonamidobenzamide] | – | – | 16.2 ± 3 | 5.2 ± 0.5 | ~ 1 | 10.5 ± 2.7 | not | insoluble | 14.3 ± 2.7 | 5.2 ± 0.8 | insensitive | –
